Measurements from PubChem BioAssay (NCI).
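Cells were grown in 96-well plates and exposed to each compound for 48 hours at five concentrations; endpoints were interpolated linearly between bracketing concentrations, or set to the highest concentration if not reached. At the TGI there is no net growth.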

Experiments:
Test in all cases: NCI tumour cell line growth inhibition, 48 h
[1] = system: 786-0 renal
[2] = system: A498 renal
[3] = system: A549 NSCLC
[4] = system: ACHN renal
[5] = system: BT-549 breast
[6] = system: CAKI-1 renal
[7] = system: CCRF-CEM leukemia
[8] = system: COLO 205 colon
[9] = system: DU-145 prostate
[10] = system: EKVX NSCLC
[11] = system: HCC-2998 colon
[12] = system: HCT-116 colon
[13] = system: HCT-15 colon
[14] = system: HL-60(TB) leukemia
[15] = system: HOP-62 NSCLC
[16] = system: HOP-92 NSCLC
[17] = system: HS 578T breast
[18] = system: HT29 colon
[19] = system: IGROV1 ovarian
[20] = system: K-562 leukemia
[21] = system: KM12 colon
[22] = system: LOX IMVI melanoma
[23] = system: M14 melanoma
[24] = system: MALME-3M melanoma
[25] = system: MCF7 breast
[26] = system: MDA-MB-231 breast
[27] = system: MDA-MB-435
[28] = system: MDA-N
[29] = system: MOLT-4 leukemia
[30] = system: NCI-H226 lung
[31] = system: NCI-H23 lung
[32] = system: NCI-H460 lung
[33] = system: NCI-H522 lung
[34] = system: NCI/ADR-RES ovarian
[35] = system: OVCAR-3 ovarian
[36] = system: OVCAR-4 ovarian
[37] = system: OVCAR-5 ovarian
[38] = system: OVCAR-8 ovarian
[39] = system: PC-3 prostate
[40] = system: RXF 393 renal
[41] = system: SF-268 CNS
[42] = system: SF-295 CNS
[43] = system: SF-539 CNS
[44] = system: SK-MEL-2 melanoma
[45] = system: SK-MEL-28 melanoma
[46] = system: SK-MEL-5 melanoma
[47] = system: SK-OV-3 ovarian
[48] = system: SN12C renal
[49] = system: SNB-19 CNS
[50] = system: SNB-75 CNS
[51] = system: SW-620 colon
[52] = system: T-47D breast
[53] = system: TK-10 renal
[54] = system: U251 CNS
[55] = system: UACC-257 melanoma
[56] = system: UACC-62 melanoma
[57] = system: UO-31 renal
[58] = system: RPMI-8226 leukemia

## O=C(C1OC1c1ccc(F)cc1)C12CC3CC(CC(C3)C1)C2 (stereo not drawn)
[1]
  TGI: 36.5 µM
[2]
  TGI: 58 µM
[3]
  TGI: 59.7 µM
[4]
  TGI: 85 µM
[5]
  TGI: 67.3 µM
[6]
  TGI: 57 µM
[7]
  TGI: 37 µM
[8]
  TGI: 30.9 µM
[9]
  TGI: > 100 µM
[10]
  TGI: 45.1 µM
[11]
  TGI: 36.8 µM
[12]
  TGI: 20.1 µM
[13]
  TGI: 56.7 µM
[14]
  TGI: 31.1 µM
[15]
  TGI: 70.8 µM
[16]
  TGI: 52.7 µM
[17]
  TGI: 60.1 µM
[18]
  TGI: 45.4 µM
[19]
  TGI: 59.8 µM
[20]
  TGI: 37.2 µM
[21]
  TGI: 46.8 µM
[22]
  TGI: 12.3 µM
[23]
  TGI: 31.4 µM
[24]
  TGI: 78.6 µM
[25]
  TGI: 95.4 µM
[26]
  TGI: 52.8 µM
[27]
  TGI: 26.2 µM
[28]
  TGI: 32.5 µM
[29]
  TGI: 35.3 µM
[30]
  TGI: 46.6 µM
[31]
  TGI: 43.4 µM
[32]
  TGI: 31.1 µM
[33]
  TGI: 38.2 µM
[34]
  TGI: 48.1 µM
[35]
  TGI: 33.5 µM
[36]
  TGI: 40.2 µM
[37]
  TGI: 54.7 µM
[38]
  TGI: 29 µM
[39]
  TGI: > 100 µM
[40]
  TGI: 32.7 µM
[41]
  TGI: 61.2 µM
[42]
  TGI: 79.1 µM
[43]
  TGI: 45.7 µM
[44]
  TGI: 30.6 µM
[45]
  TGI: 59 µM
[46]
  TGI: 30.7 µM
[47]
  TGI: 70.3 µM
[48]
  TGI: 44.4 µM
[49]
  TGI: > 100 µM
[50]
  TGI: > 100 µM
[51]
  TGI: 44.2 µM
[52]
  TGI: > 100 µM
[53]
  TGI: > 100 µM
[54]
  TGI: 24.5 µM
[55]
  TGI: 86.6 µM
[56]
  TGI: 38.7 µM
[57]
  TGI: 51.5 µM

## OC1CCCN(C2(c3cccs3)CCCCC2)C1 (stereo not drawn)
[1]
  TGI: > 100 µM
[2]
  TGI: > 100 µM
[4]
  TGI: > 100 µM
[5]
  TGI: > 100 µM
[6]
  TGI: > 100 µM
[8]
  TGI: > 100 µM
[9]
  TGI: > 100 µM
[10]
  TGI: > 100 µM
[11]
  TGI: > 100 µM
[12]
  TGI: > 100 µM
[13]
  TGI: > 100 µM
[14]
  TGI: > 100 µM
[15]
  TGI: > 100 µM
[16]
  TGI: > 100 µM
[17]
  TGI: > 100 µM
[18]
  TGI: > 100 µM
[19]
  TGI: > 100 µM
[20]
  TGI: > 100 µM
[21]
  TGI: > 100 µM
[22]
  TGI: > 100 µM
[24]
  TGI: > 100 µM
[25]
  TGI: > 100 µM
[26]
  TGI: > 100 µM
[27]
  TGI: > 100 µM
[28]
  TGI: > 100 µM
[29]
  TGI: > 100 µM
[31]
  TGI: > 100 µM
[32]
  TGI: > 100 µM
[33]
  TGI: > 100 µM
[34]
  TGI: > 100 µM
[35]
  TGI: > 100 µM
[36]
  TGI: > 100 µM
[37]
  TGI: > 100 µM
[38]
  TGI: > 100 µM
[39]
  TGI: > 100 µM
[58]
  TGI: > 100 µM
[40]
  TGI: > 100 µM
[41]
  TGI: > 100 µM
[42]
  TGI: > 100 µM
[44]
  TGI: > 100 µM
[45]
  TGI: > 100 µM
[46]
  TGI: > 100 µM
[47]
  TGI: > 100 µM
[48]
  TGI: > 100 µM
[50]
  TGI: > 100 µM
[51]
  TGI: > 100 µM
[52]
  TGI: > 100 µM
[53]
  TGI: > 100 µM
[54]
  TGI: > 100 µM
[55]
  TGI: > 100 µM
[56]
  TGI: > 100 µM
